{
  "source": "patent US7973055B2",
  "about": "“Crystalline forms of a biphenyl compound” (Theravance, Inc., priority 2006, dated 2011)",
  "key": {"[1]": {"target": "T1, M3 muscarinic receptor subtype (hM3) (Homo sapiens, UniProt P20309)", "T1 construct": "expressed in transfected cells", "T1 sequence (P20309 whole entry)": "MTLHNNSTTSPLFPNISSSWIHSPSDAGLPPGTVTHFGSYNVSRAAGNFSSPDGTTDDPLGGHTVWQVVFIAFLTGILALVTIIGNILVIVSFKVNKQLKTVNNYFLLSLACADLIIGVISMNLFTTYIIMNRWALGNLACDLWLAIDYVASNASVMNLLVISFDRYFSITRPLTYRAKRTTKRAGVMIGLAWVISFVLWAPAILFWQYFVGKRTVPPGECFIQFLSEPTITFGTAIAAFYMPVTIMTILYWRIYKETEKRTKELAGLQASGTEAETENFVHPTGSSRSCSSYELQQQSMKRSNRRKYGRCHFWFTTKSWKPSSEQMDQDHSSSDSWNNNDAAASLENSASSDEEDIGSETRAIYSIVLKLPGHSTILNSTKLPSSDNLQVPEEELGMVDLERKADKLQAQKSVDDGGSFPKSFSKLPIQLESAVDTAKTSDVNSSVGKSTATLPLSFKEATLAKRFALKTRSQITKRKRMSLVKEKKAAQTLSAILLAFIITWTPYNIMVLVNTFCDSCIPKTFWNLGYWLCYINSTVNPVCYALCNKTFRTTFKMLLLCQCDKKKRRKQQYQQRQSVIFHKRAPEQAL", "experiment": "Radioligand binding assay ([3H]-NMS displacement, CHO cell membranes)", "conditions": "[3H]-NMS 1 nM, this or a similar assay", "procedure": "CHO cell lines stably expressing cloned human hM1, hM2, hM3 and hM4 muscarinic receptor subtypes, respectively, were grown to near confluency in medium consisting of HAM's F-12 supplemented with 10% FBS and 250 μg/mL Geneticin. The cells were grown in a 5% CO2, 37° C. incubator and lifted with 2 mM EDTA in dPBS. Cells were collected by 5 minute centrifugation at 650×g, and cell pellets were either stored frozen at −80° C. or membranes were prepared immediately. For membrane preparation, cell pellets were resuspended in lysis buffer and homogenized with a Polytron PT-2100 tissue disrupter (Kinematica AG; 20 seconds×2 bursts). Crude membranes were centrifuged at 40,000×g for 15 minutes at 4° C. […] The protein concentration of the membrane suspension was determined by the method described in Lowry, O. et al., Journal of Biochemistry 193:265 (1951). […]\nRadioligand binding assays were performed in 96-well microtiter plates in a total assay volume of 100 μL. […] Filter plates were rinsed three times with wash buffer (10 mM HEPES) to remove unbound radioactivity. […] The plates were then counted in a PerkinElmer Topcount liquid scintillation counter (PerkinElmer Inc., Wellesley, Mass.). Binding data were analyzed by nonlinear regression analysis with the GraphPad Prism Software package (GraphPad Software, Inc., San Diego, Calif.) using the one-site competition model. […]"}, "[2]": {"test_system": "ACh-induced bronchoconstriction", "experiment": "Duration of bronchoprotection in guinea pig model of acetylcholine-induced bronchoconstriction", "format": "in vivo", "conditions": "inhalation, 1.5 hours post-dose, expected", "procedure": "Groups of six male guinea pigs (Duncan-Hartley (HsdPoc:DH) Harlan, Madison, Wis.) weighing between 250 and 350 g are individually identified by cage cards. Throughout the study, animals are allowed access to food and water ad libitum.\nTest compounds are administered via inhalation over 10 minutes in a whole-body exposure dosing chamber (R&S Molds, San Carlos, Calif.). The dosing chambers are arranged so that an aerosol was simultaneously delivered to 6 individual chambers from a central manifold. Guinea pigs are exposed to an aerosol of a test compound or vehicle (WFI). […] This is measured gravimetrically by comparing pre-and post-nebulization weights of the filled nebulizer.\nThe bronchoprotective effects of test compounds administered via inhalation are evaluated using whole body plethysmography at 1.5, 24, 48 and 72 hours post-dose.\nForty-five minutes prior to the start of the pulmonary evaluation, each guinea pig is anesthetized with an intramuscular injection of ketamine (43.75 mg/kg), xylazine (3.50 mg/kg) and acepromazine (1.05 mg/kg). […] The depth of anesthesia is monitored and adjusted if the animal responds to pinching of its paw or if the respiration rate is greater than 100 breaths/minute. […]\nStarting this program initiates the experimental protocol and data collection. […] By integrating this signal over time, a measurement of […] is calculated for each breath. […]"}},
  "data": [
    {"smiles": "CN(CCN1CCC(OC(=O)Nc2ccccc2-c2ccccc2)CC1)C(=O)c1cccc(C(=O)NCCNCc2ccc(O)cc2)c1", "note": "[compound of formula I, biphenyl-2-ylcarbamic acid 1-[2-({3-[2-(4-hydroxybenzylamino)ethylcarbamoyl]benzoyl}methylamino)ethyl]piperidin-4-yl ester]", "values": [
      {"measurement": "Ki", "setting": "[1]", "value": "< 5", "unit": "nM"},
      {"measurement": "PD2(50) for ACh-induced bronchoconstriction", "setting": "[2]", "value": "less than 200 μg/mL"}
    ]}
  ]
}
